# Data from ChEMBL document CHEMBL1201862, “PubChem BioAssay data set” (2004).
#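 A five-concentration, 48-hour dose response in 96-well plates underlies each endpoint, interpolated linearly between surrounding concentrations. GI50 is the concentration that inhibits growth by half.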 Active and inactive are the calls of the source. Rule as the data show it: active = GI50 up to about 1.1 µM and inactive = higher.
# Assays:
# Test in all cases: NCI tumour cell line growth inhibition, 48 h
# Hs-578T = test system: Hs-578T
# SF-295 = test system: SF-295
# IGROV-1 = test system: IGROV-1
# M14 = test system: M14
# EKVX = test system: EKVX
# RPMI-8226 = test system: RPMI-8226
# SNB-19 = test system: SNB-19
# NCI-H460 = test system: NCI-H460
# RXF 393 = test system: RXF 393
# HCC 2998 = test system: HCC 2998
# HOP-92 = test system: HOP-92
# OVCAR-4 = test system: OVCAR-4
# 786-0 = test system: 786-0
# MDA-MB-231 = test system: MDA-MB-231
# SR = test system: SR
# TK-10 = test system: TK-10
# SNB-75 = test system: SNB-75
# U-251 = test system: U-251
# A549 = test system: A549
# BT-549 = test system: BT-549
SMILES,GI50 (Hs-578T),GI50 (SF-295),GI50 (IGROV-1),GI50 (M14),GI50 (EKVX),GI50 (RPMI-8226),GI50 (SNB-19),GI50 (NCI-H460),GI50 (RXF 393),GI50 (HCC 2998),GI50 (HOP-92),GI50 (OVCAR-4),GI50 (786-0),GI50 (MDA-MB-231),GI50 (SR),GI50 (TK-10),GI50 (SNB-75),GI50 (U-251),GI50 (A549),GI50 (BT-549)
O=c1oc2c/c(=C\c3ccccn3)c(=O)c3cccc1c3-2,> 100 µM (inactive),> 100 µM (inactive),90.8 µM (inactive),> 100 µM (inactive),> 100 µM (inactive),28.6 µM (inactive),68.2 µM (inactive),> 100 µM (inactive),5.56 µM (inactive),> 100 µM (inactive),> 100 µM (inactive),> 100 µM (inactive),14.6 µM (inactive),31.8 µM (inactive),54.8 µM (inactive),66.8 µM (inactive),–,–,–,–
CCN(CC)CCNc1ccc2nnn3c4ccccc4c(=O)c1c23,–,4.29 µM (inactive),6.98 µM (inactive),3.86 µM (inactive),4.13 µM (inactive),2.45 µM (inactive),5.74 µM (inactive),2.25 µM (inactive),6.21 µM (inactive),7.31 µM (inactive),2.48 µM (inactive),3.51 µM (inactive),4.3 µM (inactive),–,1.15 µM (inactive),4.39 µM (inactive),3.6 µM (inactive),3.27 µM (inactive),3.59 µM (inactive),–
C[C@]12CCC(=O)O[C@H]1CCCCO2,> 100 µM (inactive),> 100 µM (inactive),> 100 µM (inactive),> 100 µM (inactive),> 100 µM (inactive),–,–,> 100 µM (inactive),> 100 µM (inactive),> 100 µM (inactive),28.1 µM (inactive),–,> 100 µM (inactive),> 100 µM (inactive),> 100 µM (inactive),> 100 µM (inactive),87.5 µM (inactive),> 100 µM (inactive),> 100 µM (inactive),–
COC(=O)CCc1ccc2c(c1)C(=O)CC2,> 100 µM (inactive),> 100 µM (inactive),> 100 µM (inactive),> 100 µM (inactive),> 100 µM (inactive),> 100 µM (inactive),> 100 µM (inactive),> 100 µM (inactive),> 100 µM (inactive),> 100 µM (inactive),> 100 µM (inactive),> 100 µM (inactive),> 100 µM (inactive),> 100 µM (inactive),> 100 µM (inactive),> 100 µM (inactive),29.7 µM (inactive),> 100 µM (inactive),> 100 µM (inactive),–
CCOC(=O)/C(=C\n1c(=O)sc2ccccc21)C(=O)c1ccccc1,39.6 µM (inactive),88.1 µM (inactive),20 µM (inactive),> 100 µM (inactive),> 100 µM (inactive),39.6 µM (inactive),–,> 100 µM (inactive),> 100 µM (inactive),> 100 µM (inactive),–,> 100 µM (inactive),> 100 µM (inactive),63 µM (inactive),58.7 µM (inactive),–,53.8 µM (inactive),> 100 µM (inactive),> 100 µM (inactive),–
Cc1ccc(S(=O)(=O)N(CC(O)COc2ccccc2)c2c(F)cccc2F)cc1 (stereo not given),20 µM (inactive),29.2 µM (inactive),–,15.5 µM (inactive),23.3 µM (inactive),14.4 µM (inactive),33.3 µM (inactive),15.1 µM (inactive),10.5 µM (inactive),21.1 µM (inactive),0.114 µM (active),13.2 µM (inactive),20.7 µM (inactive),17.9 µM (inactive),21.8 µM (inactive),33.7 µM (inactive),18.9 µM (inactive),15.7 µM (inactive),17.3 µM (inactive),–
COC(=O)C12C3C4C5C3(C#N)C1C5(C(=O)OC)C42C(=O)N(C(C)C)C(C)C (stereo not given),–,> 100 µM (inactive),> 100 µM (inactive),> 100 µM (inactive),> 100 µM (inactive),> 48.6 µM (inactive),> 100 µM (inactive),> 57.5 µM (inactive),> 100 µM (inactive),> 96.6 µM (inactive),> 100 µM (inactive),> 100 µM (inactive),> 100 µM (inactive),–,13.9 µM (inactive),> 100 µM (inactive),> 100 µM (inactive),> 78 µM (inactive),> 100 µM (inactive),–
COc1ccc(OCC(=O)O)c2c1CCCC2=O,–,> 100 µM (inactive),> 100 µM (inactive),> 100 µM (inactive),> 100 µM (inactive),> 100 µM (inactive),> 100 µM (inactive),> 100 µM (inactive),> 100 µM (inactive),> 100 µM (inactive),> 100 µM (inactive),> 100 µM (inactive),> 100 µM (inactive),–,> 100 µM (inactive),> 100 µM (inactive),62.8 µM (inactive),> 100 µM (inactive),> 100 µM (inactive),–
O=C1Nc2ccccc2C(=O)O/C(Cc2ccccc2)=N\c2ccccc21,–,> 100 µM (inactive),> 100 µM (inactive),> 100 µM (inactive),> 100 µM (inactive),> 100 µM (inactive),> 100 µM (inactive),> 100 µM (inactive),> 100 µM (inactive),82.8 µM (inactive),–,> 100 µM (inactive),> 100 µM (inactive),–,> 100 µM (inactive),> 100 µM (inactive),25.9 µM (inactive),> 100 µM (inactive),> 100 µM (inactive),> 100 µM (inactive)
Brc1ccc2c(-c3csc(-c4c[nH]c5ccccc45)n3)c[nH]c2c1,–,–,13 µM (inactive),14.3 µM (inactive),15.6 µM (inactive),19.4 µM (inactive),17.8 µM (inactive),16.1 µM (inactive),22.4 µM (inactive),15.1 µM (inactive),15.6 µM (inactive),16 µM (inactive),17.9 µM (inactive),16.1 µM (inactive),–,12.4 µM (inactive),24.4 µM (inactive),17.9 µM (inactive),15.8 µM (inactive),18.3 µM (inactive)
OC(CCNCc1ccccc1)c1ccc2ccccc2c1 (stereo not given),20.6 µM (inactive),33 µM (inactive),16 µM (inactive),36.1 µM (inactive),34.8 µM (inactive),23.8 µM (inactive),23.7 µM (inactive),17.3 µM (inactive),16.7 µM (inactive),36.2 µM (inactive),–,28.4 µM (inactive),20.1 µM (inactive),17.4 µM (inactive),35.6 µM (inactive),18.3 µM (inactive),28.2 µM (inactive),16.9 µM (inactive),19 µM (inactive),–
COc1ccc(N[S+]([O-])c2cccc(C)c2)cc1 (stereo not given),87.9 µM (inactive),> 100 µM (inactive),28.3 µM (inactive),> 100 µM (inactive),12.2 µM (inactive),26.2 µM (inactive),> 100 µM (inactive),30 µM (inactive),54.5 µM (inactive),3.88 µM (inactive),–,–,> 100 µM (inactive),48.5 µM (inactive),35.9 µM (inactive),> 100 µM (inactive),> 100 µM (inactive),79.1 µM (inactive),29.3 µM (inactive),–
